Test system: Geobacillus stearothermophilus spores
Assay: Steam resistance of biological indicators in the BIER vessel (kill kinetics, log population versus time)
Assay type: cell-based
Description: In the following examples, the test organism is prepared using a standard lot of Geobacillus stearothermophilus spores suspended in an aqueous carbohydrate solution. In these examples, xylose and dextrose are used as the carbohydrates. Comparative examples are also provided wherein the carbohydrate is not used. In each case, the aqueous suspension is placed in a vial and allowed to dry. The resulting biological indicators are resistance tested. The tests show an unexpected decrease in resistance when the biological indicators are derived from a carbohydrate solution as compared to when no carbohydrate is used.
In these examples, the biological indicators are tested for resistance to steam sterilization using the biological indicator evaluation resistor (BIER) vessel depicted in FIG. 5A. Referring to FIG. 5A, BIER vessel 300 includes chamber 310, door 320, and interior shelf 330 for placement of the biological indicators. Steam, heat and pressure enters chamber 310 as indicated by arrow 340. Vent 350 is provided for the rapid release of steam, heat and pressure. Operation is controlled by a computerized processor, sensors, and valves designed to introduce rapid changes to the environment within the chamber 310.
Referring to FIG. 5B, the process cycle used in the BIER vessel includes six phases, these phases being numbered as phases 1-6 in FIG. 5B. These phases can be described as follows:
The term “log population” refers to the log of the number of colony-forming units (cfu) of viable spores in the test sample. For example, a log population of 6 refers to 10^6 (or 1,000,000) viable colony-forming units of spores in the test sample.

O=C[C@H](O)[C@@H](O)[C@H](O)CO [xylose]
resistance (time) (steam at 121° C., spores dried from suspension in 0.5M carbohydrate solution): approximately 4 minutes | time for a 6 log reduction (kill kinetics) (steam at 121° C., spores dried from suspension in 1.67 M xylose solution): approximately 5 minutes | resistance (time) (steam at 132° C., spores dried from suspension in xylose solution as in Example 1 (1.67 M)): approximately 1.5 minutes
